In PMC9516332 (Frontiers in Oncology, 2022):
Like-named read-outs stand apart in the source and are kept apart here.

Tested on: 134 cancer cell lines
Assay: Cell viability assay (ATPlite, 72 hours), IC50 on cancer cell line panel

CCN1CCN(c2ccc(Nc3cc(N(C)C(=O)Nc4c(Cl)c(OC)cc(OC)c4Cl)ncn3)cc2)CC1 [infigratinib]
IC50 (Homo sapiens, MOLT-4, read-out: IC50 in cell proliferation assay, MOLT-4 cell line): > 3.16 µM | IC50 (Homo sapiens, MV4-11, read-out: IC50 in cell proliferation assay, MV4-11 cell line (FLT3 ITD)): 2.57 µM | IC50 (Homo sapiens, MeWo, read-out: IC50 in cell proliferation assay, MeWo cell line): > 3.16 µM | IC50 (Homo sapiens, NCCIT, read-out: IC50 in cell proliferation assay, NCC-IT cell line): 0.466 µM | IC50 (Homo sapiens, NCI-H82, read-out: IC50 in cell proliferation assay, cell line NCI-H82): > 3.16 µM | IC50 (Homo sapiens, NCI-H460, read-out: IC50 in cell proliferation assay, NCI-H460 cell line): > 3.16 µM | IC50 (Homo sapiens, NCI-H661, read-out: IC50 in cell proliferation assay, NCI-H661 cell line): > 3.16 µM | IC50 (Homo sapiens, NCI-H716, read-out: IC50 in cell proliferation assay, cell line NCI-H716 (FGFR2-COL14A1)): 0.02 µM | IC50 (Homo sapiens, NCI-H1650, read-out: IC50 in cell proliferation assay, NCI-H1650 cell line (EGFR exon19del)): 5.09 µM | IC50 (Homo sapiens, NCI-H1975, read-out: IC50 in cell proliferation assay, NCI-H1975 cell line (EGFR p.L858R + p.T790M)): > 3.16 µM | IC50 (Homo sapiens, NCI-H2228, read-out: IC50 in cell proliferation assay, NCI-H2228 cell line (EML4-ALK)): 4.38 µM | IC50 (Homo sapiens, OVCAR-3, read-out: IC50 in cell proliferation assay, cell line OVCAR-3): > 3.16 µM | IC50 (Homo sapiens, PFSK-1, read-out: IC50 in cell proliferation assay, cell line PFSK-1): > 3.16 µM | IC50 (Homo sapiens, RL95-2, read-out: IC50 in cell proliferation assay, cell line RL95-2 (EGFR p.A289V)): > 3.16 µM | IC50 (Homo sapiens, RPMI-7951, read-out: IC50 in cell proliferation assay, cell line RPMI-7951 (BRAF p.V600E)): > 3.16 µM | IC50 (Homo sapiens, RS4-11, read-out: IC50 in cell proliferation assay, cell line RS4;11): > 3.16 µM | IC50 (Homo sapiens, Rec1, read-out: IC50 in cell proliferation assay, cell line REC-1): 4 µM | IC50 (Homo sapiens, SHP77, read-out: IC50 in cell proliferation assay, cell line SHP-77): > 3.16 µM | IC50 (Homo sapiens, SK-BR-3, read-out: IC50 in cell proliferation assay, cell line SK-BR-3 (ERBB2 amplification)): > 3.16 µM | IC50 (Homo sapiens, SK-N-AS, read-out: IC50 in cell proliferation assay, cell line SK-N-AS): > 3.16 µM | IC50 (Homo sapiens, SK-N-FI, read-out: IC50 in cell proliferation assay, cell line SK-N-FI): > 3.16 µM | IC50 (Homo sapiens, SK-N-MC, read-out: IC50 in cell proliferation assay, cell line SK-N-MC): 3.21 µM | IC50 (Homo sapiens, SK-N-SH, read-out: IC50 in cell proliferation assay, cell line SK-N-SH (ALK p.F1174L)): 4.47 µM | IC50 (Homo sapiens, SNU-5, read-out: IC50 in cell proliferation assay, cell line SNU-5 (MET amplification)): > 3.16 µM | IC50 (Homo sapiens, SNU-16, read-out: IC50 in cell proliferation assay, cell line SNU-16 (FGFR2 amplification)): 0.028 µM | IC50 (Homo sapiens, SNU-C2B, read-out: IC50 in cell proliferation assay, cell line SNU-C2B (EGFR p.R165Q)): > 3.16 µM | IC50 (Homo sapiens, SU-DHL-1, read-out: IC50 in cell proliferation assay, cell line SU-DHL-1 (NPM1-ALK)): > 3.16 µM | IC50 (Homo sapiens, SU-DHL-6, read-out: IC50 in cell proliferation assay, cell line SU-DHL-6): > 3.16 µM | IC50 (Homo sapiens, SUP-T1, read-out: IC50 in cell proliferation assay, cell line SUP-T1): > 3.16 µM | IC50 (Homo sapiens, SW48, read-out: IC50 in cell proliferation assay, cell line SW48 (EGFR p.G719S)): > 3.16 µM | IC50 (Homo sapiens, SW480, read-out: IC50 in cell proliferation assay, cell line SW480): > 3.16 µM | IC50 (Homo sapiens, SW626, read-out: IC50 in cell proliferation assay, cell line SW626): > 3.16 µM | IC50 (Homo sapiens, SW780, read-out: IC50 in cell proliferation assay, cell line SW780 (FGFR3-BAIAP2L1)): 0.039 µM | IC50 (Homo sapiens, SW837, read-out: IC50 in cell proliferation assay, cell line SW837): > 3.16 µM | IC50 (Homo sapiens, SW872, read-out: IC50 in cell proliferation assay, cell line SW872 (BRAF p.V600E)): > 3.16 µM | IC50 (Homo sapiens, SW900, read-out: IC50 in cell proliferation assay, cell line SW900): > 3.16 µM | IC50 (Homo sapiens, SW948, read-out: IC50 in cell proliferation assay, cell line SW948): > 3.16 µM | IC50 (Homo sapiens, SW982, read-out: IC50 in cell proliferation assay, cell line SW982 (BRAF p.V600E)): > 3.16 µM | IC50 (Homo sapiens, SW-620, read-out: IC50 in cell proliferation assay, cell line SW620): > 3.16 µM | IC50 (Homo sapiens, T98G, read-out: IC50 in cell proliferation assay, cell line T98G): 0.135 µM | IC50 (Homo sapiens, TCC-SUP, read-out: IC50 in cell proliferation assay, cell line TCCSUP): > 3.16 µM | IC50 (Homo sapiens, THP-1, read-out: IC50 in cell proliferation assay, cell line THP-1): > 3.16 µM | IC50 (Homo sapiens, U2OS, read-out: IC50 in cell proliferation assay, cell line U2OS): > 3.16 µM | IC50 (Homo sapiens, U-87 MG, read-out: IC50 in cell proliferation assay, cell line U-87MG ATCC): > 3.16 µM | IC50 (Homo sapiens, U-118-MG, read-out: IC50 in cell proliferation assay, cell line U-118MG): > 3.16 µM | IC50 (Homo sapiens, UMUC3, read-out: IC50 in cell proliferation assay, cell line UM-UC-3): 0.625 µM | IC50 (Hs766T, read-out: IC50 in cell proliferation assay, Hs 766T cell line): > 3.16 µM | IC50 (Rh30, read-out: IC50 in cell proliferation assay, cell line Rh30): 0.525 µM | IC50 (read-out: IC50 in cell proliferation assay, 11-18 cell line (EGFR p.L858R)): > 3.16 µM | IC50 (read-out: IC50 in cell proliferation assay, Hs 852.T cell line): 5.37 µM | IC50 (read-out: IC50 in cell proliferation assay, JAR cell line): 2.99 µM | IC50 (read-out: IC50 in cell proliferation assay, cell line 5637): > 3.16 µM | IC50 (read-out: IC50 in cell proliferation assay, cell line A-388): > 3.16 µM | IC50 (read-out: IC50 in cell proliferation assay, cell line DB): > 3.16 µM | IC50 (read-out: IC50 in cell proliferation assay, cell line DEL (NPM1-ALK)): 3.51 µM | IC50 (read-out: IC50 in cell proliferation assay, cell line ES-2 (BRAF p.V600E)): > 3.16 µM | IC50 (read-out: IC50 in cell proliferation assay, cell line PA-1): 2.15 µM | IC50 (read-out: IC50 in cell proliferation assay, cell line PC-3): > 3.16 µM | IC50 (read-out: IC50 in cell proliferation assay, cell line RD): > 3.16 µM | IC50 (read-out: IC50 in cell proliferation assay, cell line RKO (BRAF p.V600E)): > 3.16 µM | IC50 (read-out: IC50 in cell proliferation assay, cell line RL): > 3.16 µM | IC50 (read-out: IC50 in cell proliferation assay, cell line RT-4 (FGFR3-TACC3)): 0.014 µM | IC50 (read-out: IC50 in cell proliferation assay, cell line SR (NPM1-ALK)): > 3.16 µM | IC50 (read-out: IC50 in cell proliferation assay, cell line T24): > 3.16 µM | IC50 (read-out: IC50 in cell proliferation assay, cell line TT (RET p.C634W)): > 3.16 µM | IC50 (read-out: IC50 in cell proliferation assay, cell line VA-ES-BJ): > 3.16 µM
